# Laboratory results published in BindingDB's records for doi:10.1021/jm0613323 (Burnham Institute For Medical Research, 2007).
# Biological target: Receptor-type tyrosine-protein phosphatase C, CD45/PTPRC (Homo sapiens) (UniProt P08575)
# Assay: Inhibition of CD45 PTP by fluorescence spectrometry
# Chain of Receptor-type tyrosine-protein phosphatase C, CD45/PTPRC (Homo sapiens) (P08575 whole entry, looked up): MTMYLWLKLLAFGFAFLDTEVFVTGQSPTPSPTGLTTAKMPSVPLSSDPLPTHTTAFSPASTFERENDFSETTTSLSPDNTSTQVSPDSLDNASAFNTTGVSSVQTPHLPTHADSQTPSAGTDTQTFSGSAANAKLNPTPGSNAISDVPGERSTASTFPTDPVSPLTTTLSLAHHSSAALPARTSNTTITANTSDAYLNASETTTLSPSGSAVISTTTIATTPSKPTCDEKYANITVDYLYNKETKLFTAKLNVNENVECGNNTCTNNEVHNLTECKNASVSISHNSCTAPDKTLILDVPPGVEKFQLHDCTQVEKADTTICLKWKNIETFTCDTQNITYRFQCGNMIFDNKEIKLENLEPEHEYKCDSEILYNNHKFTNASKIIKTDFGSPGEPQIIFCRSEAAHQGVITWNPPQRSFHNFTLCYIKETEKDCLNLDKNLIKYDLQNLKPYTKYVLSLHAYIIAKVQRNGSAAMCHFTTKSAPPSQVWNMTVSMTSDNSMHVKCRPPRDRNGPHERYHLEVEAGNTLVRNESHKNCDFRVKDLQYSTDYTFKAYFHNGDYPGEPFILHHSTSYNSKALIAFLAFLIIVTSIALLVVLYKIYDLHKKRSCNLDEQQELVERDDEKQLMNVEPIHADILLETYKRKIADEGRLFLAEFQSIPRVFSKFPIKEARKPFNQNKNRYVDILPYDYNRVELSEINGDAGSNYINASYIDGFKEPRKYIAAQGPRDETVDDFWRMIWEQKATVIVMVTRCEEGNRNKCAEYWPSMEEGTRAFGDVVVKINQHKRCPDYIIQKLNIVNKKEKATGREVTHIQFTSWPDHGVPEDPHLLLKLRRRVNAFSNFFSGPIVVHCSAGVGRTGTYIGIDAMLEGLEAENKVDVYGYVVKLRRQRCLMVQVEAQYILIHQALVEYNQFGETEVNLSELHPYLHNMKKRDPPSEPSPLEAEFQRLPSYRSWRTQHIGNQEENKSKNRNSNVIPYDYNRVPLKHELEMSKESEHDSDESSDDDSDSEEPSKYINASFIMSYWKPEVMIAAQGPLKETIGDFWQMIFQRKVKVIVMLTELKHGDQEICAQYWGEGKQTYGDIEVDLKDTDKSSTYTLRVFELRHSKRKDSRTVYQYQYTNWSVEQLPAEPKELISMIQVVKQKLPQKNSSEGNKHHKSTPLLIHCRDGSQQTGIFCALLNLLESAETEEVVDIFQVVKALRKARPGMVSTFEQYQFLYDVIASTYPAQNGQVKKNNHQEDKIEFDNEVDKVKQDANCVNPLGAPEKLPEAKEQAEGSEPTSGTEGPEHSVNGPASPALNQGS
structure (smiles),measurement,value
Oc1ccc(-c2ccc(-c3nnn[nH]3)cc2Cl)cc1C12CC3CC(CC(C3)C1)C2 [5-[3'-(1-adamantyl)-2-chloro-4'-hydroxy-4-biphenyl]-1H-tetrazole],IC50,1.2 µM
